Here are results for 16 compounds from ChEMBL document CHEMBL5576115, “Design and synthesis of chromene-1,2,3-triazole benzene sulfonamide hybrids as potent carbonic anhydrase-IX inhibitors against prostate cancer” (RSC Med Chem, 2024).

SMILES strings stand for the structures. Activity calls are given as the source filed them. The rule behind the calls is not given here.

Data set [1] concerns MCF7. Put plainly: Cytotoxicity against human MCF7 cells assessed as reduction in cell viability measured after 48 hrs by MTT assay. The format is functional, cell-based. The following applies: MCF7, 48 h. On the technique in general: Formazan colour is commonly taken as a measure of viable cells.
Data set [2] concerns PC-3. The experiment in a line: Cytotoxicity against human PC-3 cells assessed as reduction in cell viability measured after 48 hrs by MTT assay. The following applies: PC-3, 48 h. The format is functional, cell-based.
Data set [3] concerns MCF7. The experiment in a line: Cytotoxicity against human MCF7 cells assessed as reduction in cell viability at 100 uM measured after 48 hrs by MTT assay. The format is functional, cell-based.
Data set [4] in a line: Cytotoxicity against human WI-38 cells assessed as reduction in cell viability measured after 48 hrs by MTT assay. The format is toxicity, cell-based.
Another data set relates to WI-38. The experiment in a line: Cytotoxicity against human WI-38 cells assessed as cell death at 100 uM measured after 48 hrs by MTT assay relative to control. The format is toxicity, cell-based. The following applies: wi-38, 48 h.
The next data set deals with Carbonic anhydrase 9 (Homo sapiens, UniProt Q16790). The experiment in a line: biochemical. The format is cell-based, Sf9.
In data set [5] the test system is PC-3. The experiment in a line: Cytotoxicity against human PC-3 cells assessed as reduction in cell viability at 100 uM measured after 48 hrs by MTT assay. The format is functional, cell-based.
Data set [6] concerns PC-3. Put plainly: Cell cycle arrest in human PC-3 cells assessed as accumulation of cells at G2/M phase at cytotoxic IC50 measured after 48 hrs by propidium iodide staining based flow cytometry (reference value: 12.75%). The format is functional.
The subject of data set [7] is PC-3. The experiment in a line: Cell cycle arrest in human PC-3 cells assessed as accumulation of cells at S phase at cytotoxic IC50 measured after 48 hrs by propidium iodide staining based flow cytometry (reference value: 19.81%). The format is functional. On the technique in general: Flow cytometry measures light scatter and fluorescence of single cells or particles in a stream.

Data set [8] has as its system PC-3. Put plainly: Cell cycle arrest in human PC-3 cells assessed as accumulation of cells at G1 phase at cytotoxic IC50 measured after 48 hrs by propidium iodide staining based flow cytometry relative to control. The format is functional.
Data set [9] concerns PC-3. The experiment in a line: Induction of apoptosis in human PC-3 cells assessed as accumulation of early apoptotic cells at cytotoxic IC50 measured after 48 hrs by Annexin-V-FITC/propidium iodide staining based flow cytometry relative to control. The format is functional.
Data set [10] deals with PC-3. Put plainly: Induction of apoptosis in human PC-3 cells assessed as accumulation of late apoptotic cells at cytotoxic IC50 measured after 48 hrs by Annexin-V-FITC/propidium iodide staining based flow cytometry relative to control. The format is functional.
Data set [11] has as its system PC-3. The experiment in a line: Induction of apoptosis in human PC-3 cells assessed as necrotic cells at cytotoxic IC50 measured after 48 hrs by Annexin-V-FITC/propidium iodide staining based flow cytometry (reference value: 1.61%). The format is functional.

Description for Carbonic anhydrase 9: Inhibition of human C-terminal His-tagged CA-9 (59 to 414 residues) expressed in baculovirus infected Sf9 insect cells

On to `COc1cccc2c1C(=O)c1c(O)c3c(c(O)c1C2=O)C[C@@](O)(C(=O)CO)C[C@@H]3O[C@H]1C[C@H](N)[C@H](O)[C@H](C)O1` [DOXORUBICIN], for which the IC50 (usually the concentration at which inhibition is half-maximal) in the data set on MCF7 [1] stood at 3.41 µM; in the data set on PC-3 [2] it was 2.31 µM.
In the same order, the values of `Cc1cc(=O)oc2c(C)c(OCc3cn(-c4ccc(S(=O)(=O)Nc5ncccn5)cc4)nn3)ccc12` are 16.7 µM and 12.5 µM.
For the compound `Cc1cc(=O)oc2cc(OCc3cn(CC(=O)Nc4ccc(S(=O)(=O)Nc5ccccn5)cc4)nn3)ccc12`, the IC50 in the data set on MCF7 [1] is 17 µM; in the data set on PC-3 [2], 58.9 µM. Also, the outcome in the data set on MCF7 [3] was Active.
On to `O=C(Cn1cc(COc2cc(OCc3cn(CC(=O)Nc4ccc(S(=O)(=O)Nc5ccccn5)cc4)nn3)c3c(-c4ccccc4)cc(=O)oc3c2)nn1)Nc1ccc(S(=O)(=O)Nc2ccccn2)cc1`, for which the concentration for half-maximal inhibition (IC50) worked out at 57.2 µM in the data set on MCF7 [1], 5.52 µM in the data set on PC-3 [2] and 0.214 µM against Carbonic anhydrase 9. Moreover, in [4], the half-maximal inhibitory concentration (IC50) at 48 h amounted to 46.6 µM. Moreover, the Activity with WI-38 is 23.6%. In addition, in the data set with PC-3 [5], the result was Active.
`Cc1cc(=O)oc2cc(OCc3cn(-c4ccc(S(=O)(=O)Nc5ncccn5)cc4)nn3)ccc12`: the IC50 is 41.4 µM in the data set with MCF7 [1] and 8.31 µM in the data set with PC-3 [2].
Regarding `Cc1cc(=O)oc2cc(OCc3cn(-c4ccc(S(=O)(=O)N=C(N)N)cc4)nn3)ccc12`, the half-maximal inhibitory concentration (IC50) stood at 76 µM in the data set with MCF7 [1] and 23.9 µM in the data set with PC-3 [2].
For `Cc1cc(C)nc(NS(=O)(=O)c2ccc(-n3cc(COc4ccc5c(C)cc(=O)oc5c4)nn3)cc2)n1`, the IC50 was found to be 97.5 µM in the data set with MCF7 [1] and 9.98 µM in the data set with PC-3 [2].
`N=C(N)NS(=O)(=O)c1ccc(-n2cc(COc3cc(OCc4cn(-c5ccc(S(=O)(=O)NC(=N)N)cc5)nn4)c4c(-c5ccccc5)cc(=O)oc4c3)nn2)cc1`: the IC50 in the data set on MCF7 [1] turned out to be 19.1 µM; in the data set with PC-3 [2], 14.6 µM. Moreover, the outcome in the data set on MCF7 [3] was Active.
For `Cc1cc(=O)oc2c(C)c(OCc3cn(-c4ccc(S(=O)(=O)Nc5ccccn5)cc4)nn3)ccc12` the same measures were 14.3 µM, 8.95 µM and “Active”.
In the case of `O=c1cc(-c2ccccc2)c2c(OCc3cn(-c4ccc(S(=O)(=O)Nc5ncccn5)cc4)nn3)cc(OCc3cn(-c4ccc(S(=O)(=O)Nc5ncccn5)cc4)nn3)cc2o1`, the IC50 came out at 66.7 µM in the data set on MCF7 [1] and 11.6 µM with PC-3 [2].
Take `Cc1cc(=O)oc2c(C)c(OCc3cn(CC(=O)Nc4ccc(S(=O)(=O)Nc5ccccn5)cc4)nn3)ccc12`: the half-maximal inhibitory concentration (IC50) in the data set with MCF7 [1] came out at 38.9 µM; in the data set on PC-3 [2] it was 40.1 µM.
Consider `Cc1cc(=O)oc2c(C)c(OCc3cn(-c4ccc(S(=O)(=O)N=C(N)N)cc4)nn3)ccc12`, for which the IC50 in the data set with MCF7 [1] was determined as 56.3 µM; in the data set on PC-3 [2], 29.7 µM.
For `Cc1cc(=O)oc2cc(OCc3cn(-c4ccc(S(=O)(=O)Nc5ccccn5)cc4)nn3)ccc12` the same measures were 32 µM and 15.8 µM.
In the case of `O=c1cc(-c2ccccc2)c2c(OCc3cn(-c4ccc(S(=O)(=O)Nc5ccccn5)cc4)nn3)cc(OCc3cn(-c4ccc(S(=O)(=O)Nc5ccccn5)cc4)nn3)cc2o1`, the IC50 in the data set with MCF7 [1] came out at 18 µM; in the data set on PC-3 [2], 2.08 µM; on Carbonic anhydrase 9 it was 0.113 µM. For the same compound, in data set [4], the IC50 at 48 h was found to be 46.6 µM. The Activity stood at 23.6% in the data set on WI-38; 9.36% in the data set on PC-3 [6]; 15.29% in the data set with PC-3 [7]; 31.9% in the data set with PC-3 [8]; 4.68% in the data set on PC-3 [11]. The “fold change (FC)” value was above 18 in the data set on PC-3 [9] and 60 with PC-3 [10]. The result in the data set with PC-3 [5] was Active.
For the compound `Cc1cc(C)nc(NS(=O)(=O)c2ccc(-n3cc(COc4cc(OCc5cn(-c6ccc(S(=O)(=O)Nc7nc(C)cc(C)n7)cc6)nn5)c5c(-c6ccccc6)cc(=O)oc5c4)nn3)cc2)n1`, the concentration for half-maximal inhibition (IC50) was above 100 µM in the data set on MCF7 [1], 7.57 µM with PC-3 [2] and 0.134 µM on Carbonic anhydrase 9. The IC50 at 48 h in data set [4] is 46.6 µM. The Activity in the data set with WI-38 was determined as 23.6%. Besides, in the data set on PC-3 [5], the result was Active.
`Cc1cc(C)nc(NS(=O)(=O)c2ccc(-n3cc(COc4ccc5c(C)cc(=O)oc5c4C)nn3)cc2)n1`: the IC50 in the data set with MCF7 [1] came out at 41.1 µM; with PC-3 [2], 21.4 µM.
